Data as given in the supplement of paper PMC10307832.

Key:
Experiment in all cases: relative viability (nuclei count vs DMSO), 5 days (fraction); higher = more cells survive
[1] = test system: A-427
How it was run: (§1)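 Dosing by pin tool came one day after lung cancer cell lines were seeded in 1536-well plates, using either one drug or a fixed anchor-drug dose plus five library-drug doses (not always all listed) in √10 steps. After 5 days, nuclei were counted on 4× images. Relative viability is treated-well nuclei count divided by vehicle-well nuclei count, and values are medians of duplicate plates.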

[2] = test system: ABC-1
How it was run: as §1

[3] = test system: BEN
How it was run: as §1

[4] = test system: CAL-12T
How it was run: as §1

[5] = test system: HARA
How it was run: as §1

[6] = test system: LCLC-103H
How it was run: as §1

[7] = test system: LOU-NH91
How it was run: as §1

[8] = test system: NCI-H1651
How it was run: as §1

[9] = test system: NCI-H1666
How it was run: as §1

[10] = test system: NCI-H1734
How it was run: as §1

[11] = test system: NCI-H1944
How it was run: as §1

[12] = test system: NCI-H1975
How it was run: as §1

[13] = test system: NCI-H2085
How it was run: as §1

[14] = test system: NCI-H2126
How it was run: as §1

[15] = test system: NCI-H460
How it was run: as §1

[16] = test system: NCI-H520
How it was run: as §1

[17] = test system: NCI-H596
How it was run: as §1

[18] = test system: NCI-H647
How it was run: as §1

[19] = test system: NCI-H661
How it was run: as §1

[20] = test system: NCI-H727
How it was run: as §1

[21] = test system: NCI-H838
How it was run: as §1

[22] = test system: RERF-LC-KJ
How it was run: as §1

[23] = test system: SW 900
How it was run: as §1

With `CCNC(=O)c1noc(-c2cc(C(C)C)c(O)cc2O)c1-c1ccc(CN2CCOCC2)cc1` [Luminespib] + Cc1cc(Nc2cc(N3CCN(C)CC3)nc(Sc3ccc(NC(=O)C4CC4)cc3)n2)n[nH]1 [Tozasertib] (partner 0.1 µM) the relative viability ([1]; first compound 0.002 µM) was 0.218, the relative viability ([1]; first compound 0.006325 µM) was 0.204 and the relative viability ([1]; first compound 0.02 µM) was 0.151. For the same compound, the relative viability ([1]; first compound 0.06325 µM) was 0.226, the relative viability ([1]; first compound 0.2 µM) was 0.134 and the relative viability ([2]; first compound 0.002 µM) was 0.196. The relative viability ([2]; first compound 0.006325 µM) was 0.21, the relative viability ([2]; first compound 0.02 µM) was 0.139 and the relative viability ([2]; first compound 0.06325 µM) was 0.173. The relative viability ([2]; first compound 0.2 µM) was 0.14, the relative viability ([3]; first compound 0.002 µM) was 0.554 and the relative viability ([3]; first compound 0.006325 µM) was 0.458. The relative viability ([3]; first compound 0.02 µM) was 0.475, the relative viability ([3]; first compound 0.06325 µM) was 0.37 and the relative viability ([3]; first compound 0.2 µM) was 0.383. For the same compound, the relative viability ([4]; first compound 0.002 µM) was 0.361, the relative viability ([4]; first compound 0.006325 µM) was 0.319 and the relative viability ([4]; first compound 0.02 µM) was 0.211. For the same compound, the relative viability ([4]; first compound 0.06325 µM) was 0.113, the relative viability ([4]; first compound 0.2 µM) was 0.107 and the relative viability ([5]; first compound 0.002 µM) was 0.158. For the same compound, the relative viability ([5]; first compound 0.006325 µM) was 0.103, the relative viability ([5]; first compound 0.02 µM) was 0.106 and the relative viability ([5]; first compound 0.06325 µM) was 0.172. The relative viability ([5]; first compound 0.2 µM) was 0.339, the relative viability ([6]; first compound 0.002 µM) was 0.47 and the relative viability ([6]; first compound 0.006325 µM) was 0.455. For the same compound, the relative viability ([6]; first compound 0.02 µM) was 0.44, the relative viability ([6]; first compound 0.06325 µM) was 0.497 and the relative viability ([6]; first compound 0.2 µM) was 0.308. The relative viability ([7]; first compound 0.002 µM) was 0.685, the relative viability ([7]; first compound 0.006325 µM) was 0.664 and the relative viability ([7]; first compound 0.02 µM) was 0.428. The relative viability ([7]; first compound 0.06325 µM) was 0.265, the relative viability ([7]; first compound 0.2 µM) was 0.282 and the relative viability ([8]; first compound 0.002 µM) was 0.812. It also gave a relative viability ([8]; first compound 0.006325 µM) of 0.577, a relative viability ([8]; first compound 0.02 µM) of 0.611 and a relative viability ([8]; first compound 0.06325 µM) of 0.313. The relative viability ([8]; first compound 0.2 µM) was 0.154, the relative viability ([9]; first compound 0.002 µM) was 0.64 and the relative viability ([9]; first compound 0.006325 µM) was 0.583. For the same compound, the relative viability ([9]; first compound 0.02 µM) was 0.601, the relative viability ([9]; first compound 0.06325 µM) was 0.732 and the relative viability ([9]; first compound 0.2 µM) was 0.538. It also gave a relative viability ([10]; first compound 0.002 µM) of 0.248, a relative viability ([10]; first compound 0.006325 µM) of 0.254 and a relative viability ([10]; first compound 0.02 µM) of 0.252. The relative viability ([10]; first compound 0.06325 µM) was 0.143, the relative viability ([10]; first compound 0.2 µM) was 0.154 and the relative viability ([11]; first compound 0.002 µM) was 0.253. It also gave a relative viability ([11]; first compound 0.006325 µM) of 0.256, a relative viability ([11]; first compound 0.02 µM) of 0.22 and a relative viability ([11]; first compound 0.06325 µM) of 0.197. For the same compound, the relative viability ([11]; first compound 0.2 µM) was 0.22, the relative viability ([12]; first compound 0.002 µM) was 0.759 and the relative viability ([12]; first compound 0.006325 µM) was 0.745. It also gave a relative viability ([12]; first compound 0.02 µM) of 0.603, a relative viability ([12]; first compound 0.06325 µM) of 0.1 and a relative viability ([12]; first compound 0.2 µM) of 0.093. The relative viability ([13]; first compound 0.002 µM) was 0.804, the relative viability ([13]; first compound 0.006325 µM) was 0.749 and the relative viability ([13]; first compound 0.02 µM) was 0.758. It also gave a relative viability ([13]; first compound 0.06325 µM) of 0.879, a relative viability ([13]; first compound 0.2 µM) of 0.607 and a relative viability ([14]; first compound 0.002 µM) of 0.844. It also gave a relative viability ([14]; first compound 0.006325 µM) of 0.879, a relative viability ([14]; first compound 0.02 µM) of 0.661 and a relative viability ([14]; first compound 0.06325 µM) of 0.5. It also gave a relative viability ([14]; first compound 0.2 µM) of 0.264, a relative viability ([15]; first compound 0.002 µM) of 0.554 and a relative viability ([15]; first compound 0.006325 µM) of 0.421. It also gave a relative viability ([15]; first compound 0.02 µM) of 0.597, a relative viability ([15]; first compound 0.06325 µM) of 0.0212 and a relative viability ([15]; first compound 0.2 µM) of 0.0218. It also gave a relative viability ([16]; first compound 0.002 µM) of 0.404, a relative viability ([16]; first compound 0.006325 µM) of 0.449 and a relative viability ([16]; first compound 0.02 µM) of 0.345. The relative viability ([16]; first compound 0.06325 µM) was 0.195, the relative viability ([16]; first compound 0.2 µM) was 0.221 and the relative viability ([17]; first compound 0.002 µM) was 0.959. The relative viability ([17]; first compound 0.006325 µM) was 1.01, the relative viability ([17]; first compound 0.02 µM) was 0.804 and the relative viability ([17]; first compound 0.06325 µM) was 0.876. It also gave a relative viability ([17]; first compound 0.2 µM) of 0.657, a relative viability ([18]; first compound 0.002 µM) of 0.299 and a relative viability ([18]; first compound 0.006325 µM) of 0.274. The relative viability ([18]; first compound 0.02 µM) was 0.431, the relative viability ([18]; first compound 0.06325 µM) was 0.0669 and the relative viability ([18]; first compound 0.2 µM) was 0.0766. The relative viability ([19]; first compound 0.002 µM) was 0.352, the relative viability ([19]; first compound 0.006325 µM) was 0.358 and the relative viability ([19]; first compound 0.02 µM) was 0.348. It also gave a relative viability ([19]; first compound 0.06325 µM) of 0.357, a relative viability ([19]; first compound 0.2 µM) of 0.292 and a relative viability ([20]; first compound 0.002 µM) of 0.61. For the same compound, the relative viability ([20]; first compound 0.006325 µM) was 0.614, the relative viability ([20]; first compound 0.02 µM) was 0.505 and the relative viability ([20]; first compound 0.06325 µM) was 0.314. The relative viability ([20]; first compound 0.2 µM) was 0.291, the relative viability ([21]; first compound 0.002 µM) was 0.272 and the relative viability ([21]; first compound 0.006325 µM) was 0.215. The relative viability ([21]; first compound 0.02 µM) was 0.308, the relative viability ([21]; first compound 0.06325 µM) was 0.164 and the relative viability ([21]; first compound 0.2 µM) was 0.123. It also gave a relative viability ([22]; first compound 0.002 µM) of 0.558, a relative viability ([22]; first compound 0.006325 µM) of 0.501 and a relative viability ([22]; first compound 0.02 µM) of 0.518. For the same compound, the relative viability ([22]; first compound 0.06325 µM) was 0.211, the relative viability ([22]; first compound 0.2 µM) was 0.208 and the relative viability ([23]; first compound 0.002 µM) was 0.638. The relative viability ([23]; first compound 0.006325 µM) was 0.623, the relative viability ([23]; first compound 0.02 µM) was 0.591 and the relative viability ([23]; first compound 0.06325 µM) was 0.15. For the same compound, the relative viability ([23]; first compound 0.2 µM) was 0.117.
